In patent US8455240B2, “Use of thermophilic sulphate-reducing archaea for the implementation of a process for the degradation of hydrocarbons” (Institut de Recherche pour le Development (I.R.D.), priority 2005, dated 2013):
Several values for one entry are separate records, joined by “and”; a condition that tells them apart may be missing. Equal values may be shown once.

Legend:
A. fulgidus = experiment: Subculture on hydrocarbons, A. fulgidus (sulphide production); format: cell-based, Archaeoglobus fulgidus
Protocol: (§1) Experimentally, 4 ml of Cord-Ruwish reagent comprising 50 mmol/l of HCl and 5 mmol/l of CuSO4 are added to 0.1 ml of sample. Copper sulphate (CuSO4) by reacting with hydrogen sulphide (H2S), forms a copper sulphide precipitate (CuS) after the reaction: CuSO4+H2S→CuS+H2SO4
(§2) According to this method, the CuS is assayed by spectrophotometry at 480 nm. The readings are carried out against a blank constituted by 4 ml of Cord-Ruwish reagent.
(§3) A subculture was carried out starting from the preceding experiment on naphthalene, DBT solubilized as previously in HMN, and on HMN alone, for the two strains studied.
(§4) For this subculture, apart from the tests containing the hydrocarbon (DBT, naphthalene (Naph), […]), and seeded with the previously chosen inoculum, abiotic controls (negative controls) containing the substrate (hydrocarbon) but not inoculated were produced for the purpose of quantifying the sulphide production which could be due to chemical reactions between the different constituents of the medium. In these controls there was no development in the concentration of sulphide over a period of 20 days (Table 4).

Archaeoglobus fulgidus [1] = experiment: Degradation kinetics of lactate; format: cell-based
Protocol: (§5) The analysis and quantification of the metabolites are carried out by HPLC by measuring the disappearance of the substrate and the appearance of different metabolism products.
This can be explained by the fact that the strain L-3 can have a substrate degradation metabolism different from that of Archaeoglobus fulgidus.

strain L-3 [2] = experiment: Screening for hydrocarbon degradation, strain L-3 (sulphide production, Cord-Ruwish); format: cell-based, Archaeoglobus fulgidus CNCM I-3465 (strain L-3); settings: 45 d
Protocol: as §1, §2
(§6) The study of the hydrocarbon degradation abilities is an experiment which requires a particularly long incubation. Thus, it was carried out in Bellco tubes sealed with thick rubber stoppers.
(§7) For these experiments, tubes containing 10 ml of culture medium without substrate, are 10% inoculated, then the hydrocarbon is introduced by injection through the stopper.
(§8) The hydrocarbons chosen are model molecules belonging to the different classes of hydrocarbons, namely: • hexadecane (CH3(CH2)14CH3, C16), a saturated linear aliphatic hydrocarbon; • hexadecene (CH3(CH2)13CHCH2, C16:1), an unsaturated linear aliphatic hydrocarbon of biogenic origin; • dibenzothiophene (DBT, C12H8S), a sulphur-containing aromatic hydrocarbon.
(§9) The aliphatic hydrocarbons (C16; C16:1) are added to the corresponding tubes, at a rate of 0.04 ml/10 ml of culture medium. The aromatic hydrocarbons (DBT) are solubilized in 2,2,4,4,6,8,8-heptamethylnonane (HMN, C16H34) at a rate of 20 mg/ml of HMN, and 0.75 ml of this solution is injected into 10 ml of culture medium.
(§10) 3 tubes were produced for each test and control. The growth of the strains was monitored indirectly by the production of sulphide.
as §3

Archaeoglobus fulgidus [3] = experiment: Screening for hydrocarbon degradation, A. fulgidus (sulphide production, Cord-Ruwish); format: cell-based
Protocol: as §1, §2, §6, §7, §8, §9, §10, §3

strain L-3 [4] = experiment: Subculture on hydrocarbons, strain L-3 (sulphide production); format: cell-based, Archaeoglobus fulgidus CNCM I-3465 (strain L-3)
Protocol: as §1, §2, §3, §4

[5] = tested on: Archaeoglobus fulgidus (DSM 4304); experiment: Degradation of different substrates by A. fulgidus as a function of the electron acceptor; format: cell-based; settings: for total H2S: unit from b116
Protocol: as §1, §2, §5
(§11) The study of the degradation abilities of different substrates of the strain L-3 was based on a comparison with the collection strain, Archaeoglobus fulgidus (DSM 4304). The degradation of the substrates, by the two strains was monitored by a measurement of the cell biomass at 580 nm, a sulphide assay produced according to the Cord-Ruwish method, a study of the degradation metabolites by HPLC, completed by a CO2 assay with a GPC-Katharometer.
(§12) Two series of tests were prepared, one with thiosulphate, the other with sulphate as an electron acceptor.

strain L-3 [6] = experiment: Sources of carbon and energy used by the strain L-3; format: cell-based, Archaeoglobus fulgidus CNCM I-3465 (strain L-3); settings: thiosulphate as electron acceptor; for H2S (480 nm): unit from b126
Protocol: as §1, §2, §5
The study of the growth of the strain L-3 in the presence of different sources of carbon and energy was carried out with thiosulphate as an electron acceptor. The monitoring was carried out by estimation of the cell biomass (OD 580 nm), by assay of the sulphide production (Cord-Ruwish). The results were confirmed by HPLC analyses, and completed in certain cases by a CO2 assay.

strain L-3 [7] = experiment: Degradation of different substrates by the strain L-3 as a function of the electron acceptor; format: cell-based, Archaeoglobus fulgidus CNCM I-3465 (strain L-3); set-up: total H2S: unit not given here
Protocol: as §1, §2, §5, §11, §12

[8] = thiosulphate as electron acceptor
[9] = thiosulphate or sulphate as electron acceptor

Substance: lactate
- sulphide production (OD 480) 8 d (A. fulgidus; 8 d): 0.3 mM
- sulphide production (OD 480) 22 d (A. fulgidus; 22 d): 0.3 mM
- sulphide production (OD 480) 45 d (A. fulgidus; 45 d): 0.2 mM and 0.3 mM
- lactate degradation at the end of three months (Archaeoglobus fulgidus [1]): all of the lactate is degraded
- sulphide production (OD 480) 45 d (strain L-3 [2]): 1.8 mM and 3.2 mM and 1.7 mM
- sulphide production (OD 480) 45 d (Archaeoglobus fulgidus [3]; 45 d): 3.5 mM and 3.8 mM and 4.3 mM
- sulphide production (OD 480) 60 d (Archaeoglobus fulgidus [3]; 60 d): 3.3 mM and 3 mM and 3.1 mM
- sulphide production (OD 480) 70 d (Archaeoglobus fulgidus [3]; 70 d): 3.9 mM and 3.7 mM
- ΔS tf-ti (Archaeoglobus fulgidus [3]; final minus initial sulphide): 3.6 mM and 3.2 mM
- sulphide production (OD 480) 0 d (strain L-3 [4]; 0 d): 0.2 mM and 0.1 mM
- sulphide production (OD 480) 8 d (strain L-3 [4]; 8 d): 4.8 mM and 6.1 mM
- sulphide production (OD 480) 22 d (strain L-3 [4]; 22 d): 4.7 mM and 8 mM
- sulphide production (OD 480) 45 d (strain L-3 [4]; 45 d): 3.9 mM
- initial OD 580 ([5]; sulphate as electron acceptor): 0.1657 and 0.1456
- total H2S ([5]; sulphate as electron acceptor): 7.1 mM and 12.2 mM
- final OD 580 [5, 8]: 0.3681 and 0.314
- initial OD 580 [5, 8]: 0.1333 and 0.1419
- total H2S [5, 8]: 8 mM and 9.3 mM
- ability of Archaeoglobus fulgidus to oxidize the substrate [5, 9]: capable of oxidizing
- OD 580 nm Final (strain L-3 [6]): 0.1249 and 0.1173
- OD 580 nm Initial (strain L-3 [6]): 0.0742 and 0.0841
- H2S (480 nm) (strain L-3 [6]): 5.7 mM and 2.9 mM
- H2S (480 nm) (strain L-3 [6]; listed as lactate): 5.7 mM
- final OD 580 (strain L-3 [7]; sulphate as electron acceptor): 0.3076 and 0.2071
- initial OD 580 (strain L-3 [7]; sulphate as electron acceptor): 0.1024 and 0.0888
- total H2S (strain L-3 [7]; sulphate as electron acceptor): 2.8 and 1.4
- final OD 580 (strain L-3 [7]; [8]): 0.1027 and 0.1161
- initial OD 580 (strain L-3 [7]; [8]): 0.073 and 0.1029
- total H2S (strain L-3 [7]; [8]): 9.3 and 7.2
- ability of the strain L-3 to degrade the substrate (strain L-3 [7]; [9]): capable of degrading
